# Results as given in US8518383B2, “Oral care products comprising buffer systems for improved mineralization/remineralization benefits” (Wm. Wrigley Jr. Company, priority 2006, dated 2013).
# Assay: in-vitro pH cycling model, enamel microhardness (remineralization efficacy)
# Set-up: species or system human
# Method: The purpose of this test was to evaluate in-vitro efficacy of soluble calcium and phosphate combinations. Testing was conducted at the University of Indiana. Enamel specimens (3×3×3 mm diameter window) were removed from extracted human teeth and mounted on acrylic rods. The enamel surface was ground and polished using alumina slurry, rinsed with deionized water, and air dried. Artificial lesions were then formed in the enamel specimens by a 96 hr immersion in a partially saturated HAP acid buffer consisting of 0.1 mM lactic acid and 0.2 wt % Carbopol C907 adjusted to a pH of 5. Four baseline indentations per specimen were placed with a Vickers diamond at a 200 g load for 15 seconds and the indentation lengths had to be in a range from 25-45 microns. Enamel specimens (N=18 per treatment) were then cycled daily through a series of solutions repeated over an 8 day time period. Artificial saliva, acid challenge and pooled whole saliva solutions were prepared fresh daily. After treatment, the enamel microhardness was assessed and the difference between initial and final microhardness was calculated as a measure of remineralization efficacy. The data was then statistically analyzed with overall treatment comparisons calculated using an ANOVA model at α=0.05. Post ANOVA pairwise comparisons were made using a 2 tailed student t-test.
# Artificial saliva with active treatments (1 hr, 4× daily)
# Saliva treatment (0.05 ppm fluoride, 30 min daily)
# Acid challenge (partially saturated HAP acid/carbopol buffer, Ph 5.0, 20 min., 3× daily)
# Saliva film in a humid environment (overnight)
# Comparison of Ca-citrate and Ca-citrate+Phosphate blend vs. Ca-lactate (see FIG. 1)
smiles,measurement,setting,value
"CC(O)C(=O)[O-].CC(O)C(=O)[O-].O.O.O.O.O.[Ca+2] (stereo not drawn) [CaLac (1500), Ca Lactate 5-hydrate]",ΔVSMH (difference between initial and final enamel microhardness),"Ca 1500 ppm in artificial saliva, 1 hr 4x daily, 8 day pH cycling, mean, N=18",5.99
"O=C([O-])CC(O)(CC(=O)[O-])C(=O)[O-].O=C([O-])CC(O)(CC(=O)[O-])C(=O)[O-].[Ca+2].[Ca+2].[Ca+2] [CaCit (811), Ca Citrate]",ΔVSMH (difference between initial and final enamel microhardness),"Ca 811 ppm (0.38% salt) in artificial saliva, 1 hr 4x daily, 8 day pH cycling, mean, N=18",29.65
same,ΔVSMH (difference between initial and final enamel microhardness),"Ca 811 ppm (0.38% salt) in artificial saliva; 1 hr 4x daily, 8 day pH cycling; mean, N=18; 0.38%)",29.55
same,"enamel rehardening, comparison in words","pairwise comparison of treatment groups, see value",higher enamel rehardening over Ca-lactate
"CC(O)C(=O)[O-].CC(O)C(=O)[O-].O.O.O.O.O.[Ca+2] (stereo not drawn) [CaLac (500), Ca Lactate 5-hydrate]",ΔVSMH (difference between initial and final enamel microhardness),"Ca 500 ppm in artificial saliva, 1 hr 4x daily, 8 day pH cycling, mean, N=18",4.78
CC(O)C(=O)[O-].CC(O)C(=O)[O-].[Ca+2] (stereo not drawn) [Ca-lactate],dose response of enamel rehardening,500 and 1500 ppm,No significant dose response
